# Laboratory results as given in patent US11213548B2, “Modulatable switch for selection of donor modified cells” (CSL Behring Gene Therapy, Inc., priority 2017, dated 2022).
# Columns and labels:
# Type in all cases: cell-based
# K562 cells [1] = assay: Positive selection with 6TG of HPRT knockdown / knockout K562 cells (ex vivo)
# Experimental: K562 cells were transduced with a vector including a nucleic acid sequence designed to knockdown HPRT and a nucleic acid sequence encoding the green fluorescent protein (GFP) (MOI=1/2/5); or were transfected with a nanocapsule including CRISPR/Cas9 and a sgRNA to HPRT (100 ng/5×10^4 cells) at day zero (0). 6-TG was added into the medium from day 3 through day 14. The medium was refreshed every 3 to 4 days. GFP was analyzed on flow machine and InDel % as analyzed with T7E1 assay. FIG. 9A illustrates that the GFP+ population of transduced K562 cells increased from day 3 to day 14 under treatment of 6TG; while the GFP+ population was almost steady without 6-TG treatment. […] It should be noted that 6TG selection process occurred much faster on HPRT knockout cells as compared with the HPRT knockdown cells (MOI=1) at the same concentration of 300 nM of 6TG from day 3 to day 14. The difference between knockdown and knockout could be explained by some level of residual HPRT by the RNAi knockdown approach as compared with the full elimination of HPRT by the knockout approach. Therefore, HPRT-knockout cells were believed to have a much higher tolerance against 6TG and are believed to grow much faster at higher dosages of 6TG (900 nM) compared with HPRT-knockdown cells.
# CEM cells [2] = assay: Positive selection with 6TG of HPRT knockdown / knockout CEM cells (ex vivo)
# Experimental: CEM cells were transduced with a vector including a nucleic acid sequence designed to knockdown HPRT and a nucleic acid sequence encoding the green fluorescent protein or transfected with a nanocapsule including CRISPR/Cas9 and a sgRNA to HPRT at day 0. 6-TG was added into the medium from day 3 to day 17. The medium was refreshed every 3 to 4 days. GFP as analyzed on flow machine and InDel % is analyzed by T7E1 assay. FIG. 10A illustrates that the GFP+ population of transduced […] cells increased from day 3 to day 17 under treatment of 6TG while GFP+ population was almost steady without 6-TG. […] It should be noted that 6TG selection process occurred faster on HPRT knockout cells rather than HPRT knockdown cells (MOI=1) at the same concentration of 6TG from day 3 to day 17.
# K562 cells [3] = assay: Negative selection with MTX for K562 cells transduced with different lentiviral vector designs
# Experimental: K562 cells were transduced with either TL20cw-GFP virus soup at dilution factor of 16, TL2Ocw-Ubc/GFP-7SK/sh734 (one sequentially encoding GFP and a shRNA designed to knockdown HPRT) virus soup at dilution factor of 16 and TL2Ocw-7SK/sh734-UBC/GFP (one sequentially encoding a shRNA designed to knockdown HPRT and GFP) virus soup at dilution factor of 16, respectively (see FIG. 13). All cells were cultured with medium containing 0.3 uM of MTX 3 days later. Also shown in FIG. 13 are K562 cells which were transduced by TL20cw-7SK/sh734-UBC/GFP (one encoding a nucleic acid encoding a shRNA designed to knockdown HPRT) virus soup at dilution factor of 1024 one month earlier and where GFP-sh734-transduced cells were positively selected with 300 nM of 6TG 6-TG was selection during that time to reach more than 90% of GFP+ population. […] The relative sh734 expression per VCN for sh734-GFP-transduced cells and GFP-sh73-transduced cells were measured.
# CEM cells [4] = assay: Negative selection with MTX or MPA of transduced or transfected CEM cells; conditions: day 0 to day 14; for GFP population of transduced cells under treatment: CEM experiment (K562 in the source), steady for untreated group
# K562 cells [5] = assay: Negative selection with MTX of transduced or transfected K562 cells; conditions: 0.3 uM MTX, day 0 to day 14
# Experimental: Transduced or transfected K562 cells (such as those from Example 6) were cultured with or without MTX from day 0 to day 14. The medium was refreshed every 3 to 4 days. GFP was analyzed on flow machine and InDel % was analyzed by T7E1 assay. […] FIG. 11B illustrates that the transfected K562 cells were eliminated under treatment with 0.3 uM of MTX at a faster pace as compared with the HPRT-KD population.
smiles,measurement,setting,value
"Nc1nc2nc[nH]c2c(=S)[nH]1 [6TG, 6-thioguanine]","Speed of selection of HPRT knockout K562 cells, higher dosage versus 300/600 nM of 6TG","K562 cells [1]; 900 nM 6TG compared with 300/600 nM, day 3 to 14",faster selection
same,HPRT knockout population of K562 cells under treatment of 6TG,"K562 cells [1]; CRISPR/Cas9 + sgRNA to HPRT nanocapsule, day 3 to 14, InDel % by T7E1 assay",increased
same,GFP+ population of transduced K562 cells under treatment of 6TG,"K562 cells [1]; HPRT knockdown vector with GFP, MOI=1/2/5, 6-TG in medium day 3 to day 14, flow, almost steady without 6-TG",increased
same,Speed of 6TG selection on HPRT knockout cells compared with HPRT knockdown cells (MOI=1),"K562 cells [1]; K562, 300 nM 6TG, day 3 to day 14",much faster
same,"Speed of selection of HPRT knockout CEM cells, higher dosage versus 300/600 nM of 6TG","CEM cells [2]; 900 nM 6TG compared with 300/600 nM, day 3 to 17",faster selection
same,GFP+ population of transduced cells under treatment of 6TG,"CEM cells [2]; CEM experiment (K562 in the source), HPRT knockdown vector with GFP, 6-TG day 3 to day 17, almost steady without 6-TG",increased
same,Speed of 6TG selection on HPRT knockout cells compared with HPRT knockdown cells (MOI=1),"CEM cells [2]; CEM, same concentration of 6TG, day 3 to day 17",faster
same,HPRT knockout population of CEM cells under treatment of 6TG,"CEM cells [2]; CRISPR/Cas9 + sgRNA to HPRT nanocapsule, day 3 to 17, InDel % by T7E1 assay",increased
same,GFP+ population reached by positive selection with 6TG,"K562 cells [3]; 300 nM 6TG, K562 transduced at dilution factor of 1024 one month earlier",more than 90%
"COc1c(C)c2c(c(O)c1C/C=C(\C)CCC(=O)O)C(=O)OC2 [MPA, mycophenolic acid]",GFP population of transduced cells under treatment,CEM cells [4]; 1 uM MPA,decreased
same,HPRT knockout population of CEM cells under treatment,CEM cells [4]; 1 uM MPA,eliminated at a faster pace
same,GFP population of transduced cells under treatment,CEM cells [4]; 10 uM MPA,decreased
same,HPRT knockout population of CEM cells under treatment,CEM cells [4]; 10 uM MPA,eliminated at a faster pace
"CN(Cc1cnc2nc(N)nc(N)c2n1)c1ccc(C(=O)N[C@@H](CCC(=O)O)C(=O)O)cc1 [MTX, methotrexate]",GFP population of transduced K562 cells under treatment of MTX,"K562 cells [5]; HPRT knockdown, steady without MTX",decreased
same,Transfected (HPRT knockout) K562 cells under treatment with MTX,K562 cells [5]; faster pace than HPRT-KD population,eliminated
same,GFP population of transduced cells under treatment,CEM cells [4]; 0.3 uM MTX,decreased
same,HPRT knockout population of CEM cells under treatment,CEM cells [4]; 0.3 uM MTX,eliminated at a faster pace
same,Deselection of transduced K562 cells by methotrexate,"K562 cells [3]; 0.3 uM MTX, sh734-high-expression versus sh734-low-expression lentiviral vector",could only deselect cells transduced with sh734-high-expression lentiviral vector
